US20240059710A1, “KRAS G12D Inhibitors” (Jacobio Pharmaceuticals Co., Ltd., priority 2020, published 2024)
Read-outs that look alike come from different tables or passages of the source.

Key:
[1] = biological target: T1, GDP-loaded HIS-KRAS (G12D, aa 1-169) (Homo sapiens, UniProt P01116, G12D); assay: SOS1 catalyzed nucleotide exchange assay; format: biochemical; settings: SOS1 ExD, TR-FRET, 4 hours at 25° C.
T1 construct: GDP-loaded HIS-KRAS (G12D, aa 1-169)
Method: 1. SOS1 Catalyzed Nucleotide Exchange Assay
GDP-loaded HIS-KRAS (G12D, aa 1-169) was pre-incubated with a compound in the presence of 10 nM GDP in a 384-well plate (Greiner) for 15 min, then purified SOS1 ExD (Flag tag, aa 564-1049), BODIPY™ FL GTP (Invitrogen) and MAb (monoclonal antibody) Anti 6HIS-Tb cryptate Gold (Cisbio) were added to the assay wells (Final concentration: 1.5 nM GDP-loaded HIS-KRAS (G12D), 5 nM GDP, 0.5 μM SOS1 ExD, 80 nM BODIPY™ FL GTP, 52.5 ng/mL MAb Anti 6HIS-Tb cryptate Gold) and incubated for 4 hours at 25° C. Wells containing same percent of DMSO served as vehicle control, and wells without KRAS served as low control. TR-FRET signals were read on Tecan Spark multimode microplate reader. The parameters were F486: Excitation 340 nm, Emission 486 nm, Lag time 100 μs, Integration time 200 μs; F515: Excitation 340 nm, Emission 515 nm, Lag time 100 μs, Integration time 200 μs. TR-FRET ratios for each individual wells were calculated by equation: TR-FRET ratio=(Signal F515/Signal F486)*10000. The percent of activation of compounds treated wells were normalized between vehicle control and low control (% Activation=(TR-FRET ratioCompound treated−TR-FRET ratioLow control)/(TR-FRET ratioVehicle control−TR-FRET ratioLow control)*100%). Then the data were analyzed either by fitting a 4-parameter logistic model or by Excel to calculate IC50 values.

AGS = assay: Cell growth inhibition assay (AGS); format: cell-based; settings: 6 days incubation, CellTiter-Glo
Method: (§1) 4. Cell Growth Inhibition Assay
AGS cultured in F12K medium (Gibco) containing 10% fetal bovine serum (Gibco). Cells in culture medium were plated in 96-well plates at a concentration of 500 cells/well ([…]) and allowed to attach overnight.
(§2) The next day, compounds were diluted in culture medium and added to the plates. After 6 days incubation in a 37° C./5% CO2 cell incubator, the cell viability was detected by CellTiter-Glo® Luminescent Cell Viability Assay kit (Promega). Luminescent signals were read on Tecan Spark multimode microplate reader and analyzed using a 4-parameter logistic model to calculate IC50 values.

[2] = biological target: T2, GppNp-loaded HIS-KRAS (G12D, aa 1-169) / cRAF RBD (Homo sapiens, UniProt P01116, G12D); assay: GTP-KRAS and cRAF interaction assay; format: binding; settings: HTRF, 2 hours at 25° C.
T2 construct: GppNp-loaded HIS-KRAS (G12D, aa 1-169)
T2 sequence (P01116 1-169 isoform P01116-2 G12D): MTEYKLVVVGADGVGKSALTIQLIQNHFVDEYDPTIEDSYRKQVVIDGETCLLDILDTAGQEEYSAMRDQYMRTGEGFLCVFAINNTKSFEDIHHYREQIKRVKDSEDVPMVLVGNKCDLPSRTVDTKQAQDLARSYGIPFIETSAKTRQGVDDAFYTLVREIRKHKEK
Method: 2. GTP-KRAS and cRAF Interaction Assay
GppNp-loaded HIS-KRAS (G12D, aa 1-169) was pre-incubated with a compound in the presence of 200 µM GTP in a 384-well plate (Greiner) for 15 min, then cRAF RBD (GST tag, aa 50-132, CreativeBioMart), MAb Anti GST-d2 (Cisbio) and MAb Anti 6HIS-Tb cryptate Gold (Cisbio) were added to the assay wells (Final concentration: 2.0 nM GppNp-loaded HIS-KRAS (G12D), 100 μM GTP, 35 nM cRAF RBD, 1 μg/mL MAb Anti GST-d2, 52.5 ng/mL MAb Anti 6HIS-Tb cryptate Gold) and incubated for 2 hours at 25° C. Wells containing same percent of DMSO served as vehicle control, and wells without KRAS served as low control. HTRF signals were read on Tecan Spark multimode microplate reader and HTRF ratios were calculated under manufacturer's instructions. The percent of activation of compounds treated wells were normalized between vehicle control and low control (% Activation=(HTRF ratioCompound treated−HTRF ratioLow control)/(HTRF ratioVehicle control−HTRF ratioLow control)*100). Then the data were analyzed either by fitting a 4-parameter logistic model or by Excel to calculate IC50 values.

[3] = tested on: AGS cells expressing KRAS G12D; assay: Phospho-ERK1/2(THR202/TYR204) HTRF assay; format: cell-based; settings: 2 hours incubation, read-out: AGS p-ERK IC50
Method: AGS cells expressing KRAS G12D were cultured in F12K medium (Gibco) containing 10% fetal bovine serum (Gibco). The AGS cells in culture medium were seeded in 96-well plates at a concentration of 40,000 cells/well and then put in a 37° C./5% CO2 cell incubator to incubate overnight. The next day, culture medium was removed and the compound diluted in assay medium (F12K, 0.1% FBS) was added in each well. After 2 hours incubation in a 37° C./5% CO2 cell incubator, the assay medium in 96-well plates was removed, then 50 μL of 1× blocking reagent-supplemented lysis buffer (Cisbio) was added and the plates were incubated at 25° C. for 45 min with shaking. 10 μL of cell lysates from the 96-well plates were transferred to a 384-well plate (Greiner) containing 2.5 μL/well HTRF® pre-mixed antibodies (Cisbio 64AERPEH). Incubate 4 hours at 25° C. and then read HTRF signals on Tecan Spark multimode microplate reader. The data were analyzed using a 4-parameter logistic model to calculate IC50 values.

AsPC-1 = assay: Cell growth inhibition assay (AsPC-1); format: cell-based; settings: AsPC-1, 6 days incubation, CellTiter-Glo
Method: as §1
AsPC-1 cultured in RPMI-1640 medium (Gibco) containing 10% fetal bovine serum (Gibco). Cells in culture medium were plated in 96-well plates at a concentration of 1000 cells/well ([…]) and allowed to attach overnight.
as §2

T1 sequence (P01116 1-169 isoform P01116-2 G12D): as above

Structure (SMILES) | IC50 [1] [nM] | IC50 (AGS; Homo sapiens, 144 h) [nM] | IC50 [2] [nM] | IC50 ([3]; Homo sapiens) [nM] | IC50 (AsPC-1; Homo sapiens, ASPC1, 144 h) [nM] | IC50 (AGS) [nM] | IC50 [3] [nM] | IC50 (AsPC-1) [nM]
C#Cc1cccc2cc(O)cc(-c3c(F)cc4c(N5CC6CCC(C5)N6)nc(OCC5(CN6CCOCC6)CC5)nc4c3F)c12 [Compound 41] | 9.17 | 6.96 | 211 | 2.63 | 18.7 | – | – | –
C#Cc1cccc2cc(O)cc(-c3c(F)cc4c(N5CC6CCC(C5)N6)nc(OCC5(CN6CCOCC6)CC5)nc4c3Cl)c12 [Compound 43] | 18 | 18.3 | 417 | 17.8 | 43.6 | – | – | –
C#Cc1cccc2cc(O)cc(-c3c(CCC#N)cc4c(N5CC6CCC(C5)N6)nc(OCC5(CN6CCOCC6)CC5)nc4c3F)c12 [Compound 44] | 2.14 | 13.2 | 18.2 | 3.81 | 185 | – | – | –
CCc1cccc2cc(O)cc(-c3ccc4c(N5CC6CCC(C5)N6)nc(OCC5(CN6CCOCC6)CC5)nc4c3F)c12 [Compound 47] | 7.21 | 68 | 262 | 29.6 | 76.3 | – | – | –
C#Cc1c(F)ccc2cc(O)cc(-c3ccc4c(N5CC6CCC(C5)N6)nc(OCC5(CN6CCOCC6)CC5)nc4c3F)c12 [Compound 48] | 7.14 | 1.14 | 17.7 | 0.794 | 19.9 | – | – | –
C#Cc1cccc2cc(O)cc(-c3c(CC)cc4c(N5CC6CCC(C5)N6)nc(OCC5(CN6CCOCC6)CC5)nc4c3F)c12 [Compound 49] | 3.51 | 10.7 | 26.3 | 16.8 | 88 | – | – | –
C#Cc1cccc2cc(O)cc(-c3ccc4c(N5CC6CC(C5)N6)nc(OCC5(CN6CCOCC6)CC5)nc4c3F)c12 [Compound 55] | 11.6 | 76.9 | 147 | 27.5 | 649 | – | – | –
C#Cc1cccc2cc(O)cc(-c3cc4nc(OCC5(CN6CCOCC6)CC5)nc(N5CC6CCC(C5)N6)c4cc3Cl)c12 [Compound 57] | 45.8 | 124 | 350 | 95.8 | 399 | – | – | –
C#Cc1cccc2cc(O)cc(-c3cc4nc(OCC5(CN6CCOCC6)CC5)nc(N5CC6CCC(C5)N6)c4cc3C#N)c12 [Compound 61] | 23.5 | 130 | 284 | 32.8 | 897 | – | – | –
Cc1ccc2cc(O)cc(-c3ccc4c(N5CC6CCC(C5)N6)nc(OCC5(CN6CCOCC6)CC5)nc4c3F)c2c1 [Compound 64] | 45.4 | – | 329 | – | – | 73 | 61.8 | 178
C#Cc1c(F)ccc2cc(O)cc(-c3ccc4c(N5CC6CCC(C5)N6)nc(OC[C@@]56CCCN5C[C@H](F)C6)nc4c3F)c12 [Compound 67] | 8.77 | 6.92 | 20.3 | 3.72 | 34.1 | – | – | –
